In ChEMBL document CHEMBL3091312, “Characterization and anti-inflammatory effects of iodinated acetylenic acids isolated from the marine sponges Suberites mammilaris and Suberites japonicus” (J Nat Prod, 2013):
Active and inactive are the calls of the source. No cut-off for these calls is given here.

Experiments:
Assay type in all cases: functional, cell-based
[1] = Antiinflammatory activity against mouse BV2 cells assessed as inhibition of LPS-induced NO production preincubated for 1 hr followed by LPS addition measured after 24 hrs by Griess method; conditions: BV-2
BV-2 [2] = assay: Antiinflammatory activity against mouse BV2 cells assessed as inhibition of LPS-induced PGE2 production at 5 to 10 uM preincubated for 1 hr followed by LPS addition measured after 24 hrs by ELISA
BV-2 [3] = assay: Antiinflammatory activity against mouse BV2 cells assessed as effect on PGE2 level at 5 to 10 uM after 24 hrs by ELISA relative to control
RAW264.7 [4] = assay: Antiinflammatory activity against mouse RAW264.7 cells assessed as effect on PGE2 level at 5 to 10 uM after 24 hrs by ELISA relative to control
RAW264.7 [5] = assay: Antiinflammatory activity against mouse RAW264.7 cells assessed as inhibition of LPS-induced NO production preincubated for 1 hr followed by LPS addition measured after 24 hrs by Griess method
RAW264.7 [6] = assay: Antiinflammatory activity against mouse RAW264.7 cells assessed as inhibition of LPS-induced PGE2 production at 5 to 10 uM preincubated for 1 hr followed by LPS addition measured after 24 hrs by ELISA

SMILES | IC50 [1] [µM] | inhibition (BV-2 [2]) | Activity (BV-2 [3]) | Activity (RAW264.7 [4]) | inhibition (RAW264.7 [5]) | inhibition (RAW264.7 [6]) | IC50 (RAW264.7 [5]) [µM]
CCCCC/C=C\CC#CC/C=C\C/C(I)=C\CCCC(=O)OC | 1.8 | Active | inactive | inactive | inactive |  | 
C/C=C/CC/C(I)=C\CC#CC/C=C\C/C(I)=C\CCCC(=O)OC | 18 |  | inactive | inactive |  | Active | 7
C=CCCC/C=C\CC#CC/C=C\C/C(I)=C\CCCC(=O)OC | 3.1 | Active | inactive | inactive |  |  | 53.6
C=C/C=C/C/C(I)=C\CC#CC/C=C\C/C(I)=C\CCCC(=O)OC | 23.3 |  | inactive | inactive |  | Active | 3.9
